# Laboratory results: patent US12312419B2, “Hemiasterlin derivative having cysteine residue” (priority 2019, dated 2025)
# Columns and labels:
# porcine tubulin [1] = experiment: Evaluation of activity for inhibiting microtubule polymerization using porcine tubulins (2); format: biochemical; settings: compound 9.1 μM; 60 minutes after assay initiation; relative to wells without compound; lower = stronger inhibition
# Experimental: (§1) Using a tubulin polymerization inhibition assay kit (catalog number: BK006P) purchased from Cytoskeleton Inc., the polymerization inhibitory activity of compounds of Examples with a concentration of 9.1 μM was evaluated in accordance with the protocol appended to the kit. To a 96 well microplate, 80 mM PIPES pH 6.9, 2 mM MgCl, 0.5 mM EGTA and 5% DMSO buffered solution of the compound to be evaluated was added in an amount of 10 μL for each well, and to these wells, 3 mg/mL porcine tubulin 80 mM PIPES pH 6.9, 2 mM MgCl, 0.5 mM EGTA, 1 mM GTP and 10.2% glycerol solution was added in an amount of 100 μL for each well. In order to examine a state in which tubulins polymerize over time, the absorbance at 340 nm was measured at 37° C., using a microplate reader. As the polymerization of tubulins progresses, the absorbance at 340 nm rises.
# The tubulin polymerization inhibitory activity was evaluated based on the proportion of polymerized tubulins 60 minutes after the assay initiation. Specifically, the microtubule polymerization rate (%) was calculated by dividing the absorbance of tubulins that had polymerized at wells to which the compound had been added by the absorbance of tubulins that had polymerized at wells to which the compound had not been added, and multiplying the obtained value by 100.
# Karpas-299 cells = experiment: Cellular toxicity test (1), CellTiter-Glo cell viability; format: cell-based, human; settings: Homo sapiens, 96 h; Karpas-299; cultured 4 days; cell viability
# Experimental: Karpas-299 cells (European Collection of Authenticated Cell Cultures, hereinafter, ECACC), which are human lymphoma cell lines, were cultured in RPMI 1640 (GIBCO) containing 10% fetal bovine serum (MP Biomedicals) (hereinafter, referred to as the “culture medium”). Cells were prepared to be 2×10^5 cells/mL in the culture medium, and were added to a 96 well microplate for cell culturing in an amount of 50 μL for each well. Compounds of Examples or the Comparative Example compound 4 times diluted with the culture medium in 8 stages were added to the microplate in an amount of 50 μL for each well. These were cultured at 37° C. under 5% CO2 for 4 days. After culturing, the microplate was taken out from the incubator, and was left at rest at room temperature for 10 minutes. To each well, 50 μL of CellTiter-Glo Luminescent Cell Viability Assay (Promega) was added, and the resultant mixture was stirred. This mixture was incubated at a dark place for 20 minutes. Using a microplate luminometer, luminescence at each well was measured, thereby calculating the cell viability. From the value of the cell viability, the IC50 value was calculated.
# The IC50 value was calculated by the following formula: IC50(nM)=antilog(LOG10(a/b)×(e−d)/(c−d)+LOG10b) • a: concentration a of test substance • b: concentration b of test substance • c: cell viability upon adding test substance with concentration a • d: cell viability upon adding test substance with concentration b • e: intermediate value between maximum and minimum among cell viabilities upon adding test substances with different concentrations (a and b are concentrations crossing the cell viability e, and a>b is indicated).
# The cell viability at each concentration was calculated by the following formula: Cell Viability (%)=a′/b′×100 • a′: mean value of luminescence amount of wells to which test substance was added (n=6) • b′: mean value of luminescence amount of wells to which test substance was not added (n=6) • (n represents the number of evaluations performed per test substance concentration).
# porcine tubulin [2] = experiment: Evaluation of activity for inhibiting microtubule polymerization using porcine tubulins (1); format: biochemical; settings: compound 9.1 μM; absorbance at 340 nm at 37° C. over time; FIG. 1
# Experimental: as §1, with “In summary of the protocol, to” for “To”, “mg/ml” for “mg/mL”
Compound,Microtubule polymerization rate (%) (porcine tubulin [1]),IC50 (Karpas-299 cells) [nM],activity for inhibiting microtubule polymerization (porcine tubulin [2])
CN[C@H](C(=O)N[C@H](C(=O)N(C)[C@H](/C=C(\C)C(=O)N[C@@H](CCC(=O)NCCN1C(=O)CC(SC[C@H](N)C(=O)O)C1=O)C(=O)O)C(C)C)C(C)(C)C)C(C)(C)c1cn(C)c2ccccc12 (stereo partly shown) [Example MM18],0,541,
CN[C@H](C(=O)N[C@H](C(=O)N(C)[C@H](/C=C(\C)C(=O)N[C@H](CCC(=O)NCCCN1C(=O)CC(SC[C@H](N)C(=O)O)C1=O)C(=O)O)C(C)C)C(C)(C)C)C(C)(C)c1cn(C)c2ccccc12 (stereo partly shown) [Example MM23],0,942,
CN[C@H](C(=O)N[C@H](C(=O)N(C)[C@H](/C=C(\C)C(=O)N[C@H](CCC(=O)NCCCCN1C(=O)CC(SC[C@H](N)C(=O)O)C1=O)C(=O)O)C(C)C)C(C)(C)C)C(C)(C)c1ccccc1 (stereo partly shown) [Example MM17],0,850,
CN[C@H](C(=O)N[C@H](C(=O)N(C)[C@H](/C=C(\C)C(=O)N[C@H](CCC(=O)NCCN1C(=O)CC(SC[C@H](N)C(=O)O)C1=O)C(=O)O)C(C)C)C(C)(C)C)C(C)(C)C1CCCCC1 (stereo partly shown) [Example MM32],0,> 1000,
"CN[C@H](C(=O)N[C@H](C(=O)N(C)[C@H](/C=C(\C)C(=O)N[C@H](CCC(=O)NCCN1C(=O)CC(SC[C@H](N)C(=O)O)C1=O)C(=O)O)C(C)C)C(C)(C)C)C(C)(C)c1ccccc1 (stereo partly drawn) [Example MM1, (3S,6S,9S,10E,14R)-14-(3-{[2-(3-{[(2R)-2-Amino-2-carboxyethyl]sulfanyl}-2,5-dioxopyrrolidin-1-yl)ethyl]amino}-3-oxopropyl)-6-tert-butyl-8,11-dimethyl-4,7,12-trioxo-3-(2-phenylpropan-2-yl)-9-(propan-2-yl)-2,5,8,13-tetraazapentadec-10-en-15-oic Acid]",9,> 1000,exhibited activities for inhibiting microtubule polymerization
C/C(=C\[C@H](C(C)C)N(C)C(=O)[C@@H](NC(=O)[C@@H](N)C(C)(C)c1ccccc1)C(C)(C)C)C(=O)N[C@H](CCC(=O)NCCN1C(=O)CC(SC[C@H](N)C(=O)O)C1=O)C(=O)O (stereo partly shown) [Example MM45],56,> 1000,
C/C(=C\[C@H](C(C)C)N(C)C(=O)[C@@H](NC(=O)[C@@H](N(C)C)C(C)(C)c1ccccc1)C(C)(C)C)C(=O)N[C@H](CCC(=O)NCCN1C(=O)CC(SC[C@H](N)C(=O)O)C1=O)C(=O)O (stereo partly shown) [Example MM46],0,> 1000,
CN[C@H](C(=O)N[C@H](C(=O)N(C)[C@H](/C=C(\C)C(=O)N[C@H](CCC(=O)O)C(=O)NCCN1C(=O)CC(SC[C@H](N)C(=O)O)C1=O)C(C)C)C(C)(C)C)C(C)(C)c1ccccc1 (stereo partly shown) [Example MM15],0,> 1000,
"CN[C@H](C(=O)N[C@H](C(=O)N(C)[C@H](/C=C(\C)C(=O)NCCCCNC(=O)CCCCCN1C(=O)CC(SC[C@H](N)C(=O)O)C1=O)C(C)C)C(C)(C)C)C(C)(C)c1cn(C)c2ccccc12 (stereo partly shown) [Comparative Example compound 2, reference compound]",0,30,
CN[C@H](C(=O)N[C@H](C(=O)N(C)[C@H](/C=C(\C)C(=O)N[C@@H](CCC(=O)NCCN1C(=O)CC(SC[C@H](N)C(=O)O)C1=O)C(=O)O)C(C)C)C(C)(C)C)C(C)(C)c1ccccc1 (stereo partly shown) [Example MM11],0,> 1000,
CN[C@H](C(=O)N[C@H](C(=O)N(C)[C@H](/C=C(\C)C(=O)N[C@H](CCC(=O)NCCN1C(=O)CC(SC[C@H](N)C(=O)O)C1=O)C(=O)O)C(C)C)C(C)(C)C)C(C)(C)c1cccc(C(F)(F)F)c1 (stereo partly shown) [Example MM30],12,> 1000,
CN[C@H](C(=O)N[C@H](C(=O)N(C)[C@H](/C=C(\C)C(=O)NCCCC[C@@H](NC(=O)CCCN1C(=O)CC(SC[C@H](N)C(=O)O)C1=O)C(=O)O)C(C)C)C(C)(C)C)C(C)(C)c1ccccc1 (stereo partly shown) [Example MM28],0,> 1000,
